In this assay the target is T1, ATM protein immunoprecipitated from HeLa cell nuclear extract (Homo sapiens, UniProt Q13315).
T1 construct: ATM protein was immunoprecipitated from HeLa cell nuclear extract; endogenous in cells; host or cells: HeLa cell nuclear extract (immunoprecipitated with rabbit polyclonal anti-ATM antiserum)
The assay can be described thus: In vitro ATM inhibition assay (phosphorylation of GSTp53N66 on serine 15, chemiluminescent detection). Also: tested normally from 100 µM down to 0.1 nM. Format: biochemical. As to conditions: read-out: IC50 values (the concentration at which 50% of the enzyme activity is inhibited), ATM inhibition. As to the method: In order to assess the inhibitory action of the compounds against ATM in vitro, the following assay was used to determine IC50 values. ATM protein was immunoprecipitated from HeLa cell nuclear extract using rabbit polyclonal anti-sera raised to the C-terminal ˜500 amino-acid residues of the human ATM protein. […] 10 μl of immunoprecipitated ATM in Buffer C (50 mM Hepes, pH 7.4, 6 mM MgCl2, 150 mM NaCl, 0.1 mM sodium orthovanadate, 4 mM MnCl2, 0.1 mM dithiothreitol, 10% glycerol) was added to 32.5 μl of buffer C containing 1 μg of the ATM substrate GSTp53N66 in a V-bottomed 96 well polypropylene plate. The GSTp53N66 substrate is the amino terminal 66 amino acid residues of human wild type p53 fused to glutathione S-transferase. […] Varying concentrations of inhibitor were then added. […] After 10 minutes of incubation at 37° C., the reactions were initiated by the addition of 5 μl of 500 μM Na-ATP. After 1 hour with shaking at 37° C., 150 μl of phosphate buffered saline (PBS) was added to the reaction and the plate centrifuged at 1500 rpm for 10 minutes. 5 μl of the reaction was then transferred to a 96 well opaque white plate containing 45 μl of PBS to allow the GSTp53N66 substrate to bind to the plate wells. The plate was covered and incubated at room temperature for 1 hour with shaking before discarding the contents. The plate wells were washed twice by the addition of PBS prior to the addition of 3% (w/v) bovine serum albumin (BSA) in PBS. The plate was incubated at room temperature for 1 hour with shaking before discarding the contents and washing twice with PBS. To the wells, 50 μl of a 1:10,000 dilution of primary phosphoserine-15 antibody (Cell Signaling Technology, #9284L) in 3% BSA/PBS was added to detect the phosphorylation event on the serine 15 residue of p53 elicited by the ATM kinase. […] The wells were then washed four times with PBS before the addition of chemiluminescence reagent (NEN Renaissance, NEL105). The plate was then shaken briefly, covered with a transparent plate seal and transferred to a TopCount NXT for chemiluminescent counting. Counts per second, following a one second counting time, were recorded for each reaction.
The enzyme activity for each compound is then calculated using the following equation:
[formula] Results In vitro ATM assays
Compounds were assayed for ATM inhibition activity using the method described above. […] These are determined over a range of different concentrations, normally from 100 μM down to 0.1 nM. Such IC50 values are used as comparative values to identify increased compound potencies.

Each structure is given as a SMILES string.

T1 sequence (Q13315 whole entry): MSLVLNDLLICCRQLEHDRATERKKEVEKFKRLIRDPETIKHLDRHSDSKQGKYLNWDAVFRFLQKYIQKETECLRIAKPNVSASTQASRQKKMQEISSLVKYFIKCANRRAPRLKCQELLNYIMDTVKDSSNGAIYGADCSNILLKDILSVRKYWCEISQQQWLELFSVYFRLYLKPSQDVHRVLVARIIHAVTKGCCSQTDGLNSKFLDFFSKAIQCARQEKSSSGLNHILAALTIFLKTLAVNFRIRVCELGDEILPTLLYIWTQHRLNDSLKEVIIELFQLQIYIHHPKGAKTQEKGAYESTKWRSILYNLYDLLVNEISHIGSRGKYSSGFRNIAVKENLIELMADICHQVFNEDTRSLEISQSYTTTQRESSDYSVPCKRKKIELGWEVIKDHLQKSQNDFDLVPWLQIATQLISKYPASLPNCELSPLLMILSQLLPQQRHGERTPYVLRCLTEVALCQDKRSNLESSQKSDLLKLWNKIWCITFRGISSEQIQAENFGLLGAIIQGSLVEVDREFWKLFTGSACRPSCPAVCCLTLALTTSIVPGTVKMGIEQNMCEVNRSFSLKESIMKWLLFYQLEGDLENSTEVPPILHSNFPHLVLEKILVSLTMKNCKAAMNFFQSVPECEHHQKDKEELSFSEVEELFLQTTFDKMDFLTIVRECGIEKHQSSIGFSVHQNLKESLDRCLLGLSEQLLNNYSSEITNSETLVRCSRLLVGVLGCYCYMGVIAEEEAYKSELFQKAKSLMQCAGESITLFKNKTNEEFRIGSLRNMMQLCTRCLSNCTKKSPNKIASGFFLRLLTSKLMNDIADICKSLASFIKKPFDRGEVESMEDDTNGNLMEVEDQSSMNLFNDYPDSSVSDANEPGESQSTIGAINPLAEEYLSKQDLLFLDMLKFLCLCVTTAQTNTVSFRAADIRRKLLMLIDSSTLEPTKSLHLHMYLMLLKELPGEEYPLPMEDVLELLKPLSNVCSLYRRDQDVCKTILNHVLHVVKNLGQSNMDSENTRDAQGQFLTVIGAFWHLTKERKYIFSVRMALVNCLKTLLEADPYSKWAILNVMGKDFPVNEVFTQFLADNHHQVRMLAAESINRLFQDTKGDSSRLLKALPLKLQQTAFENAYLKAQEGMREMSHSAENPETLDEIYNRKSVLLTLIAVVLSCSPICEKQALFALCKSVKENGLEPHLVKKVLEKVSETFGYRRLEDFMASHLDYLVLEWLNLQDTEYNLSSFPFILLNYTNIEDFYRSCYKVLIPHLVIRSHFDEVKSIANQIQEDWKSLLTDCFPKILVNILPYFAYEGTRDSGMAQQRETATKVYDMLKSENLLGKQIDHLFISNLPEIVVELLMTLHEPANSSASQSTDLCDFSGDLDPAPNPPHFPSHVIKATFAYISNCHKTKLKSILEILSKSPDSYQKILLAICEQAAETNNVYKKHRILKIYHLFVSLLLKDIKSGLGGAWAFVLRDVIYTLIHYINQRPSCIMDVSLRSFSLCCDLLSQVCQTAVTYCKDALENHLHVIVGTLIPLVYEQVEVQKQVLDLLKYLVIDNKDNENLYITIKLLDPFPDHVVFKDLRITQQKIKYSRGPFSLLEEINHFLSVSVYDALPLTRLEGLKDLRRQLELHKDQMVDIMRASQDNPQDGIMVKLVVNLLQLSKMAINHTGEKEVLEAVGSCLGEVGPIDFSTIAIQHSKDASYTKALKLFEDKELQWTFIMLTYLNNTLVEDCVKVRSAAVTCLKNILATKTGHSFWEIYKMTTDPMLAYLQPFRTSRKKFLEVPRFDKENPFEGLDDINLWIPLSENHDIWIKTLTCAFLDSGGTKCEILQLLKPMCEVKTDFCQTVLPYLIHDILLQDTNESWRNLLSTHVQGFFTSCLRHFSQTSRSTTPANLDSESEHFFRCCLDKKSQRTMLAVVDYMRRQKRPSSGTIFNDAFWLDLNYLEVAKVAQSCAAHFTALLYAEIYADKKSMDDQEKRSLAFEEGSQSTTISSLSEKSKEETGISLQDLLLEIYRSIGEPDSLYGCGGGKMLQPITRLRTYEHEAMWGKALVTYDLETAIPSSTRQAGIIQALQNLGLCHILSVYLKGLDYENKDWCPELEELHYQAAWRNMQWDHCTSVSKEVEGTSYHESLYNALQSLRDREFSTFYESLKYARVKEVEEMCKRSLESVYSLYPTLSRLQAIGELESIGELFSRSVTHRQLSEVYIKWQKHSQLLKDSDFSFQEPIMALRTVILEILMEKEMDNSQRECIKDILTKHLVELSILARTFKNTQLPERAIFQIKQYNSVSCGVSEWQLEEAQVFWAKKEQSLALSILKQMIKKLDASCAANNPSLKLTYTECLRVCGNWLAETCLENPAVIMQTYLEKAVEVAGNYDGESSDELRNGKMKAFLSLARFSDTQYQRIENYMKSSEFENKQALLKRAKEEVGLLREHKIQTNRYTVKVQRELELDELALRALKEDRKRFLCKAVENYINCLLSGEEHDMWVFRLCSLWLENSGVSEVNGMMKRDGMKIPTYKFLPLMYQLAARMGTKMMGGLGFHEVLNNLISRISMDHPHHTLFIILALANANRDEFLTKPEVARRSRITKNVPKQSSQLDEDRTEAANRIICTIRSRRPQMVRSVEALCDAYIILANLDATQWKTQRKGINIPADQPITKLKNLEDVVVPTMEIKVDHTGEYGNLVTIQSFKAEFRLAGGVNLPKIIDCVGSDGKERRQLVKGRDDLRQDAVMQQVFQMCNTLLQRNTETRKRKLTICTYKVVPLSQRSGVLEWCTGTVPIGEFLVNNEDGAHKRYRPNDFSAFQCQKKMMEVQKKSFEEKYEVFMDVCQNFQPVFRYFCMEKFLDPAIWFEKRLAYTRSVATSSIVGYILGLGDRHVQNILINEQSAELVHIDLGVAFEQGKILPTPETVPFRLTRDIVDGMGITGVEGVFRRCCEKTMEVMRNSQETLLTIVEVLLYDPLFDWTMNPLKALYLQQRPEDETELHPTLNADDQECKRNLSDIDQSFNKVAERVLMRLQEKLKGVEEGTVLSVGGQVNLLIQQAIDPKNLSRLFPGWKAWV

Take `O=C(CNCc1ccncc1)Nc1ccc2c(c1)Sc1cccc(-c3cc(=O)cc(N4CCOCC4)o3)c1S2` [Compound 71]: the IC50 is less than 200 nM.

Take `CCN(CC(=O)Nc1ccc2c(c1)Sc1cccc(-c3cc(=O)cc(N4CCOCC4)o3)c1S2)Cc1ccncc1` [Compound 72]: the IC50 is less than 200 nM.

For `CN(C)CCN(C)CC(=O)Nc1ccc2c(c1)Sc1cccc(-c3cc(=O)cc(N4CCOCC4)o3)c1S2` [Compound 73], the IC50 is less than 200 nM.

In the case of `CC(=O)N1CCN(CC(=O)Nc2ccc3c(c2)Sc2cccc(-c4cc(=O)cc(N5CCOCC5)o4)c2S3)CC1` [Compound 77], the IC50 was less than 200 nM.

`COCCN1CCN(CC(=O)Nc2ccc3c(c2)Sc2cccc(-c4cc(=O)cc(N5CCOCC5)o4)c2S3)CC1` [Compound 78]: the IC50 is less than 200 nM.

For the compound `O=C(CN1CCN(CCOCCO)CC1)Nc1ccc2c(c1)Sc1cccc(-c3cc(=O)cc(N4CCOCC4)o3)c1S2` [Compound 79], the IC50 is less than 200 nM.

In the case of `CC(C)N1CCN(CC(=O)Nc2ccc3c(c2)Sc2cccc(-c4cc(=O)cc(N5CCOCC5)o4)c2S3)CC1` [Compound 80], the IC50 is less than 200 nM.

Take `CCN1CCN(CC(=O)Nc2ccc3c(c2)Sc2cccc(-c4cc(=O)cc(N5CCOCC5)o4)c2S3)CC1` [Compound 81]: the IC50 was less than 200 nM.

As for `O=C(CN1CCN(c2ccccn2)CC1)Nc1ccc2c(c1)Sc1cccc(-c3cc(=O)cc(N4CCOCC4)o3)c1S2` [Compound 82], the IC50 is less than 200 nM.

With `O=C(CN1CCN(c2ccc(F)cc2)CC1)Nc1ccc2c(c1)Sc1cccc(-c3cc(=O)cc(N4CCOCC4)o3)c1S2` [Compound 83], the IC50 was less than 200 nM.

Regarding `O=C(CN1CCN(c2ncccn2)CC1)Nc1ccc2c(c1)Sc1cccc(-c3cc(=O)cc(N4CCOCC4)o3)c1S2` [Compound 84], the IC50 is less than 200 nM.

For the compound `CC(C)NC(=O)CN1CCN(CC(=O)Nc2ccc3c(c2)Sc2cccc(-c4cc(=O)cc(N5CCOCC5)o4)c2S3)CC1` [Compound 85], the IC50 is less than 200 nM.

With `CN(C)CCN1CCN(CC(=O)Nc2ccc3c(c2)Sc2cccc(-c4cc(=O)cc(N5CCOCC5)o4)c2S3)CC1` [Compound 86], the IC50 was less than 200 nM.

Consider `CCN1CCCC1CNCC(=O)Nc1ccc2c(c1)Sc1cccc(-c3cc(=O)cc(N4CCOCC4)o3)c1S2` (stereo not shown) [Compound 87], for which the IC50 was less than 200 nM.

Regarding `O=C(CNCCN1CCCCC1)Nc1ccc2c(c1)Sc1cccc(-c3cc(=O)cc(N4CCOCC4)o3)c1S2` [Compound 88], the IC50 is less than 200 nM.

`O=C(CCN1CCOCC1)Nc1ccc2c(c1)Sc1cccc(-c3cc(=O)cc(N4CCOCC4)o3)c1S2` [Compound 91]: the IC50 is less than 200 nM.

As to `O=C(CCN1CCCCC1)Nc1ccc2c(c1)Sc1cccc(-c3cc(=O)cc(N4CCOCC4)o3)c1S2` [Compound 92], the IC50 was less than 200 nM.

As to `CN1CCN(CCC(=O)Nc2ccc3c(c2)Sc2cccc(-c4cc(=O)cc(N5CCOCC5)o4)c2S3)CC1` [Compound 94], the IC50 was less than 200 nM.

As to `O=C(CCNCCO)Nc1ccc2c(c1)Sc1cccc(-c3cc(=O)cc(N4CCOCC4)o3)c1S2` [Compound 96], the IC50 was less than 200 nM.

For the compound `NCCNCCC(=O)Nc1ccc2c(c1)Sc1cccc(-c3cc(=O)cc(N4CCOCC4)o3)c1S2` [Compound 97], the IC50 is less than 200 nM.

`O=C(CCN1CCCC1)Nc1ccc2c(c1)Sc1cccc(-c3cc(=O)cc(N4CCOCC4)o3)c1S2` [Compound 98]: the IC50 is less than 200 nM.

Take `CN1CCCN(CCC(=O)Nc2ccc3c(c2)Sc2cccc(-c4cc(=O)cc(N5CCOCC5)o4)c2S3)CC1` [Compound 99]: the IC50 is less than 200 nM.

`O=C(CCN1CCCNCC1)Nc1ccc2c(c1)Sc1cccc(-c3cc(=O)cc(N4CCOCC4)o3)c1S2` [Compound 100]: the IC50 is less than 200 nM.

In the case of `O=C(CCN1CCCCCC1)Nc1ccc2c(c1)Sc1cccc(-c3cc(=O)cc(N4CCOCC4)o3)c1S2` [Compound 101], the IC50 is less than 200 nM.

On to `O=C(CCNCCCN1CCOCC1)Nc1ccc2c(c1)Sc1cccc(-c3cc(=O)cc(N4CCOCC4)o3)c1S2` [Compound 102], for which the IC50 was less than 200 nM.

As to `COc1ccc(CNCCC(=O)Nc2ccc3c(c2)Sc2cccc(-c4cc(=O)cc(N5CCOCC5)o4)c2S3)cc1` [Compound 103], the IC50 is less than 200 nM.

Consider `O=C(CCSc1ncn[nH]1)Nc1ccc2c(c1)Sc1cccc(-c3cc(=O)cc(N4CCOCC4)o3)c1S2` [Compound 104], for which the IC50 is less than 200 nM.

For `CCN(CC)CCC(=O)Nc1ccc2c(c1)Sc1cccc(-c3cc(=O)cc(N4CCOCC4)o3)c1S2` [Compound 105], the IC50 was less than 200 nM.

For the compound `O=C(CCNCC1CCCO1)Nc1ccc2c(c1)Sc1cccc(-c3cc(=O)cc(N4CCOCC4)o3)c1S2` (stereo not shown) [Compound 107], the IC50 is less than 200 nM.

Regarding `CN(C)CCC(=O)Nc1ccc2c(c1)Sc1cccc(-c3cc(=O)cc(N4CCOCC4)o3)c1S2` [Compound 108], the IC50 was less than 200 nM.

`C[C@@H]1CN(CCC(=O)Nc2ccc3c(c2)Sc2cccc(-c4cc(=O)cc(N5CCOCC5)o4)c2S3)C[C@H](C)O1` [Compound 109]: the IC50 was less than 200 nM.

With `O=C(CCNCc1ccncc1)Nc1ccc2c(c1)Sc1cccc(-c3cc(=O)cc(N4CCOCC4)o3)c1S2` [Compound 110], the IC50 is less than 200 nM.

Consider `CCN(CCC(=O)Nc1ccc2c(c1)Sc1cccc(-c3cc(=O)cc(N4CCOCC4)o3)c1S2)Cc1ccccc1` [Compound 111], for which the IC50 is less than 200 nM.

On to `CN(C)CCN(C)CCC(=O)Nc1ccc2c(c1)Sc1cccc(-c3cc(=O)cc(N4CCOCC4)o3)c1S2` [Compound 112], for which the IC50 is less than 200 nM.

Regarding `O=C(CCNCCN1CCNC1=O)Nc1ccc2c(c1)Sc1cccc(-c3cc(=O)cc(N4CCOCC4)o3)c1S2` [Compound 113], the IC50 is less than 200 nM.

In the case of `CN1CCCC1CCNCCC(=O)Nc1ccc2c(c1)Sc1cccc(-c3cc(=O)cc(N4CCOCC4)o3)c1S2` (stereo not shown) [Compound 114], the IC50 was less than 200 nM.

For `CC(=O)N1CCN(CCC(=O)Nc2ccc3c(c2)Sc2cccc(-c4cc(=O)cc(N5CCOCC5)o4)c2S3)CC1` [Compound 116], the IC50 was less than 200 nM.

For the compound `O=C(CCN1CCN(CCOCCO)CC1)Nc1ccc2c(c1)Sc1cccc(-c3cc(=O)cc(N4CCOCC4)o3)c1S2` [Compound 117], the IC50 was less than 200 nM.

With `CC(C)N1CCN(CCC(=O)Nc2ccc3c(c2)Sc2cccc(-c4cc(=O)cc(N5CCOCC5)o4)c2S3)CC1` [Compound 118], the IC50 is less than 200 nM.

With `CCN1CCN(CCC(=O)Nc2ccc3c(c2)Sc2cccc(-c4cc(=O)cc(N5CCOCC5)o4)c2S3)CC1` [Compound 119], the IC50 is less than 200 nM.

`O=C(CCN1CCN(c2ccccn2)CC1)Nc1ccc2c(c1)Sc1cccc(-c3cc(=O)cc(N4CCOCC4)o3)c1S2` [Compound 120]: the IC50 is less than 200 nM.

With `O=C(CCN1CCN(c2ccc(F)cc2)CC1)Nc1ccc2c(c1)Sc1cccc(-c3cc(=O)cc(N4CCOCC4)o3)c1S2` [Compound 121], the IC50 was less than 200 nM.

As to `CC(C)NC(=O)CN1CCN(CCC(=O)Nc2ccc3c(c2)Sc2cccc(-c4cc(=O)cc(N5CCOCC5)o4)c2S3)CC1` [Compound 123], the IC50 was less than 200 nM.

As for `CN(C)CCN1CCN(CCC(=O)Nc2ccc3c(c2)Sc2cccc(-c4cc(=O)cc(N5CCOCC5)o4)c2S3)CC1` [Compound 124], the IC50 was less than 200 nM.

Consider `NC(=O)CNCCC(=O)Nc1ccc2c(c1)Sc1cccc(-c3cc(=O)cc(N4CCOCC4)o3)c1S2` [Compound 125], for which the IC50 was less than 200 nM.

In the case of `CCN1CCCC1CNCCC(=O)Nc1ccc2c(c1)Sc1cccc(-c3cc(=O)cc(N4CCOCC4)o3)c1S2` (stereo not shown) [Compound 126], the IC50 is less than 200 nM.

Consider `O=C(CCNCCN1CCCCC1)Nc1ccc2c(c1)Sc1cccc(-c3cc(=O)cc(N4CCOCC4)o3)c1S2` [Compound 127], for which the IC50 is less than 200 nM.

As for `O=C(CCN1CCN(CCO)CC1)Nc1ccc2c(c1)Sc1cccc(-c3cc(=O)cc(N4CCOCC4)o3)c1S2` [Compound 128], the IC50 is less than 200 nM.

For the compound `O=C(CCN1CCCN(CCO)CC1)Nc1ccc2c(c1)Sc1cccc(-c3cc(=O)cc(N4CCOCC4)o3)c1S2` [Compound 129], the IC50 was less than 200 nM.

`O=c1cc(-c2ccc(OCCN3CCCCCC3)c3c2Sc2ccccc2S3)oc(N2CCOCC2)c1` [Compound 148]: the IC50 was less than 200 nM.

`O=c1cc(-c2ccc(OCCNN3CCOCC3)c3c2Sc2ccccc2S3)oc(N2CCOCC2)c1` [Compound 153]: the IC50 was less than 200 nM.

Consider `O=c1cc(-c2ccc(OCCNCCN3CCN(Cc4ccccc4)CC3)c3c2Sc2ccccc2S3)oc(N2CCOCC2)c1` [Compound 164], for which the IC50 was less than 200 nM.

Values taken from patent publication US7429660B2, “ATM inhibitors” (Kudos Pharmaceuticals Limited, priority 2003, dated 2008).
